Type in all cases: cell-based
The test system of one assay is lactic acid bacteria. Put plainly: Molasses-based recycle stream treated with SCD, QAC or both: viable bacteria. The method, then:
(§1) In this example, a molasses-based fermentation medium was prepared and inoculated with both yeast and lactic acid bacteria. The medium comprised various components as follows:
(§2) Following inoculation, the mixed culture was grown overnight in the molasses medium, after which a recycle stream was prepared by centrifuging the broth at 3000 rpm for 5 minutes. The resulting pellet was separated from the supernatant and reconstituted using sterile deionized water, then adjusted to pH 3.0 using sulfuric acid. 5 ml portions of the reconstituted pellet were then treated as follows: • 1. Untreated • 2. QAC only (60 ppm) • 3. SCD (45 ppm) • 4. SCD/QAC (45 ppm/60 ppm)
(§3) The SCD was FermaSure® fermentation additive, E. I. du Pont de Nemours and Co., Wilmington Del. The quaternary ammonium compound (QAC) was the same DDAC (BTC 1010, Stepan Company, Northfield, Ill.) as used in Example 1.
(§4) Samples were stored in a shaking incubator at 32° C. for 2 hours following which 0.1 ml aliquots were serially diluted and plated on selective media to enumerate surviving yeast and bacteria cells. […] Following this cycle, the SCD and SCD/QAC treated samples were centrifuged as before, and the number of viable yeast and bacterial cells in the resulting pellet was determined.

In the next assay the test system is Lactobacillus brevis. The experiment in a line: Checkerboard assay of SCD with a quaternary ammonium compound against Lactobacillus brevis. Further details: key: no inhibition of growth (NI); partial inhibition (PI); complete inhibition (CI). The settings on record: SCD 0 ppm, MRS broth pH 5.5, 28 hours at 32° C. From the text:
In this example, stabilized chlorine dioxide (SCD) and a quaternary ammonium chloride (QAC) mixture were used in a checkerboard assay to determine whether their interaction was synergistic against Lactobacillus brevis. The checkerboard assay method is used to analyze interactions between compounds by mixing them in increasing concentrations to determine whether the compounds act synergistically, additively or antagonistically. (See, M. Najjar, D. Kashtanov, M Chikindas, Letters in Applied Microbiology, vol. 45 (2007) 13-18.) L. brevis was cultured overnight in MRS broth (deMan Rogosa and Sharp broth, Difco Laboratories, Inc., Sparks, M.D.) at 32° C. The culture was then diluted and resuspended in fresh MRS broth adjusted to pH 5.5. The number of bacteria in the resuspended culture was determined using standard plate counts. Samples were diluted (1:10) in sterile phosphate-buffered saline (Sigma-Aldrich Co., St. Louis, Mo.) and plated onto the surface of MRS plates. The resuspended culture […] was then used to fill the wells of a 96 well plate (Becton, Dickinson and Co., Franklin Lakes, N.J.). SCD (FermaSure® fermentation additive, E. I. du Pont de Nemours and Co., Wilmington Del.) and a quaternary ammonium compound (BTC 1010, a solution of didecyl dimethyl ammonium chloride, DDAC, Stepan Company, Northfield, Ill.) were then added at the concentrations shown in the “checkerboard” plate diagram below. The plate was covered and incubated for 28 hours at 32° C. Following incubation, the plate was removed and the optical density of each well was determined using a plate reader at 630 nm (PowerWave, BioTek Instruments Inc., Winooski, Vt.). Based on the optical density, each well was scored to determine whether there was no inhibition of growth (NI), partial inhibition (PI), or complete inhibition (CI).
To determine whether any synergistic activity occurred between SCD and the quaternary ammonium compound, the fractional inhibitory concentration (FIC) was determined using the formula:
FIC=[SCD]/MICSCD+[DDAC]/MICDDAC
where [SCD] and [DDAC] are the concentrations of SCD and BTC 1010 that result in partial inhibition and MICSCD and MICDDAC are the minimum inhibitor concentration of SCD and DDAC, respectively. Synergy between the two antimicrobials is determined when the resulting FIC is <1.0.
In this example, SCD (FermaSure® fermentation additive, E. I. du Pont de Nemours and Co., Wilmington Del.) and a second quaternary ammonium compound (BTC 2125, a mixture of n-alkyl dimethyl benzyl ammonium chlorides and n-alkyl dimethyl ethylbenzyl ammonium chlorides, ADBAC/ADEBAC, Stepan Company, Northfield, Ill.) were used in a checkerboard assay to determine whether their interaction was synergistic against Lactobacillus brevis. L. brevis was cultured as above, resuspended in MRS at pH 5.5, and then added […] the wells of a 96 well plate (Becton Dickinson, Franklin Lakes, N.J.). […] Following incubation, the plate was removed and the optical density of each well was determined using a plate reader at 630 nm. Based on the optical density, each well was scored to determine whether there was no inhibition (NI), partial inhibition (PI), or complete inhibition (CI).
To determine whether any synergistic activity occurred between SCD and the ADBAC/ADEBAC quaternary ammonium compound, the fractional inhibitory concentration (FIC) was determined as above using the formula: […]

For a further assay, the system named is yeast. Put plainly: Molasses-based recycle stream treated with SCD, QAC or both: viable yeast. Conditions: QAC only (60 ppm), pH 3.0, 32° C. The method, then: as §1, §2, §3, §4
A further assay has as its system Viable bacteria. Put plainly: Bench-scale successive fermentations with yeast recycle stream from a molasses-based ethanol plant, viable bacteria enumerated. The method, then: In this example, samples of recycle streams comprising primarily inoculant yeast were collected from a molasses-based ethanol plant in Brazil. The samples were used to complete bench-scale fermentations in which the samples were treated with a combination of SCD (FermaSure® fermentation additive, E. I. du Pont de Nemours and Co., Wilmington Del.) with didecyl dimethyl ammonium chloride (BTC 1010, a solution of didecyl dimethyl ammonium chloride, DDAC, same as in Example 1), as quaternary compound. The treated samples were used to carry out successive 8-hour long fermentations, using recovered yeast at the end of each cycle to begin the next run. Viable bacteria were enumerated over 5 fermentation cycles. Results are provided in Table 3 where ND means the combination was not tested.

Where [1] appears, read: SCD 0 ppm, DDAC 60 ppm, yeast recycle stream, 8-hour fermentations.

Data on one molecule can be found in patent US20120322124A1, “CONTROL OF CONTAMINANT MICROORGANISMS IN FERMENTATION PROCESSES WITH SYNERGISTIC FORMULATIONS CONTAINING STABILIZED CHLORINE DIOXIDE AND QUATERNARY AMMONIUM COMPOUND” (E. I. DU PONT DE NEMOURS AND COMPANY, priority 2010, published 2012).

Structures are written as SMILES.

Take `CCCCCCCCCC[N+](C)(C)CCCCCCCCCC.[Cl-]` [DDAC, didecyl dimethyl ammonium chloride]: the “Viable Cells (2 hrs) Bacteria” value in the assay on lactic acid bacteria (QAC only (60 ppm), pH 3.0, 32° C., 2 hours) amounted to 8.1 logCFU per milliliter. Also, in the assay with lactic acid bacteria (treatments of Table 4 (QAC 60 ppm, SCD 45 ppm, SCD/QAC 45 ppm/60 ppm)), the “number of viable bacteria, in words” value is on record as “did not result in any reduction in viable bacterial cells”. Moreover, the “inhibition of growth score based on optical density at 630 nm” value in the assay with Lactobacillus brevis (DDAC 2 ppm) is listed as “PI”; in the assay on Lactobacillus brevis (DDAC 4 ppm), “PI”; in the assay with Lactobacillus brevis (DDAC 5 ppm), “PI”; in the assay on Lactobacillus brevis (DDAC 6 ppm), “PI”; in the assay on Lactobacillus brevis (DDAC 7 ppm), “CI”. In the assay with yeast, the “Viable Cells (2 hrs) Yeast” value came to 8.8 logCFU per milliliter. The “Log Viable Bacteria Cycle 1” value in the assay on Viable bacteria (setting [1]) worked out at 7.79. The “Log Viable Bacteria Cycle 2” value in the assay on Viable bacteria (setting [1]) is 7.97. In addition, in the assay with Viable bacteria (treatments of Table 3 (45 ppm SCD and 60 ppm DDAC; 60 ppm DDAC alone), through 5 cycles of fermentation), the “efficacy against viable bacteria, in words” value is listed as “did not result in any significant inactivation of bacteria”.
